Experimental findings from patent US11091471B2, “Isoxazolyl ether derivatives as GABAA α5 PAM” (Hoffmann-La Roche Inc., priority 2016, dated 2021) are described below.

The target of test [1] is T1, h-GABA-A α5β3γ2 (Homo sapiens (Human), UniProt P18507+P31644). The test can be described thus: [3H]flumazenil competition binding assay, membranes of HEK293 cells expressing human GABAA receptors. The conditions noted are these: Table 1, displacement of [3H]-Flumazenil 0.5 nM, mean of two determinations. As to the method: The affinity of compounds at GABAA receptor subtypes was measured by competition for [3H]flumazenil (85 Ci/mmol; Roche) binding to HEK293 cells expressing rat (stably transfected) or human (transiently transfected) receptors of composition α1β3γ2, α2β3γ2, α3β3γ2 and α5β3γ2.
Cell pellets were suspended in Krebs-tris buffer (4.8 mM KCl, 1.2 mM CaCl2, 1.2 mM MgCl2, 120 mM NaCl, 15 mM Tris; pH 7.5; binding assay buffer), homogenized by polytron for ca. 20 sec on ice and centrifuged for 60 min at 4° C. (50000 g; Sorvall, rotor: SM24=20000 rpm). The cell pellets were resuspended in Krebs-tris buffer and homogenized by polytron for ca. 15 sec on ice. Protein was measured (Bradford method, Bio-Rad) and aliquots of 1 mL were prepared and stored at 80° C.
Assays were incubated to equilibrium for 1 hour at 4° C. and harvested onto GF/C uni-filters (Packard) by filtration using a Packard harvester and washing with ice-cold wash buffer (50 mM Tris; pH 7.5). After drying, filter-retained radioactivity was detected by liquid scintillation counting. Ki values were calculated using Excel-Fit (Microsoft) and are the means of two determinations.
On the technique in general: Loss of bound radioactivity is the signal in a displacement assay; it reports binding, not function.

For test [2], the target named is T1, h-GABA-A α5β3γ2. The test can be described thus: Two-electrode voltage clamp electrophysiology in Xenopus oocytes expressing GABAA receptors, modulation of GABA EC20 current. The test is classed as cell-based. To be noted: for Efficacy (GABA) % / Fold increase h-GABA-A α5β3γ2 oocyte: Table 2, reference compounds; for Efficacy (GABA) %: % modulation of GABA EC20; for Fold increase h-GABA-A α5β3γ2 oocyte: GABAA α5β3γ2 overexpressing oocytes. Here is the method:
Xenopus laevis oocytes at maturation stages V-VI were used for the expression of cloned mRNA encoding GABAA receptor subunits. Oocytes ready for RNA micro-injection were bought from Ecocyte, Castrop-Rauxel, Germany and stored in modified Barth's medium (composition in mM: NaCl 88, KCl 1, NaHCO3 2.4, HEPES 10, MgSO4 0.82, CaNO3 0.33, CaCl2 0.33, pH=7.5) at 20° C. until the experiment.
Oocytes were plated in 96-well plates to be used in an automated instrument (Robo-ocyte, MultiChannelSystems, Reutlingen, Germany) for microinjection and electrophysiological recordings. Approximately 50 nl of an aqueous solution containing the RNA transcripts for the subunits of the desired GABAA receptor was injected into each oocyte.
Electrophysiological experiments were performed on days 3 to 5 after the micro-injection of mRNA. During the experiment the oocytes were constantly superfused by a solution containing (in mM) NaCl 90, KCl 1, HEPES 5, MgCl2 1, CaCl2 1 (pH 7.4). Oocytes were impaled by two glass microelectrodes (resistance: 0.4 MΩ) which were filled with a solution containing KCl 1M+K-acetate 1.5 M and voltage-clamped to −80 mV. The recordings were performed at room temperature using the Roboocyte two-electrode voltage clamp system (Multichannelsystem). After an initial equilibration period of 1.5 min GABA was added for 1.5 min at a concentration evoking approximately 20% of a maximal current response (EC20). After another rest interval of 2.5 min GABA was again added evoking a response of similar amplitude and shape. […] Current traces were recorded at a digitization rate of 10 Hz during and shortly before and after the GABA application.
Each compound and concentration was tested on at least 3 oocytes.
For the analysis, the digitized current traces of the first and second GABA response were superimposed and, if necessary, rescaled to equal maximal amplitudes. The ratio between the two responses during the time interval of test compound application was calculated point by point. The extremum of the resulting “ratio trace” was taken as the efficacy (“Fold increase”) of the compound expressed as “% modulation of GABA EC20” (100*(Fold increase−1)).
For orientation: In two-electrode clamp one electrode senses voltage and the other passes current.

In test [1], `Cc1ccc(-c2noc(C)c2COc2ccc(C(=O)NC(C)C(F)(F)F)nn2)cn1` (racemic) [Example 34, (RS)-6-((5-methyl-3-(6-methylpyridin-3-yl)isoxazol-4-yl)methoxy)-N-(1,1,1-trifluoropropan-2-yl)pyridazine-3-carboxamide] showed a Ki of 13.2 nM.
Take `Cc1ccc(-c2noc(C)c2COc2ccc(C(=O)NC3CCS(=O)(=O)C3)nn2)cn1` (racemic) [Example 36, (RS)—N-(1,1-dioxothiolan-3-yl)-6-((5-methyl-3-(6-methylpyridin-3-yl)-1,2-oxazol-4-yl)methoxy)pyridazine-3-carboxamide]: in test [1], the Ki was 5.8 nM.
Same read-out and setting: the result for `Cc1ccc(-c2noc(C)c2COc2ccc(C(=O)NC3CCOC3)nn2)cn1` (racemic) [Example 45, (RS)-6-((5-methyl-3-(6-methylpyridin-3-yl)isoxazol-4-yl)methoxy)-N-(tetrahydrofuran-3-yl)pyridazine-3-carboxamide] reads 6.6 nM; that for `Cc1ccc(-c2noc(C)c2COc2ccc(C(=O)NC3CCOC(C)(C)C3)nn2)cn1` (racemic) [Example 58, (RS)—N-(2,2-dimethyltetrahydropyran-4-yl)-6-((5-methyl-3-(6-methylpyridin-3-yl)isoxazol-4-yl)methoxy)pyridazine-3-carboxamide], 16.1 nM; that for `Cc1ccc(-c2noc(C)c2COc2ccc(C(=O)NC3(C)CCOC3)nn2)cn1` (racemic) [Example 75, (RS)-6-((5-methyl-3-(6-methylpyridin-3-yl)isoxazol-4-yl)methoxy)-N-(3-methyltetrahydrofuran-3-yl)pyridazine-3-carboxamide], 17.4 nM.
The same measure, in the same setting: the figure for `Cc1ccc(-c2noc(C)c2COc2ccc(C(=O)N[C@@H]3CC[C@@H](O)C3)nn2)cn1` (racemic) [Example 152, N-((1RS,3RS)-3-hydroxycyclopentyl)-6-((5-methyl-3-(6-methylpyridin-3-yl)isoxazol-4-yl)methoxy)pyridazine-3-carboxamide] is 5.3 nM; for `Cc1ccc(-c2noc(C)c2COc2ccc(C(=O)NC3CCCOCC3)nn2)cn1` (racemic) [Example 187, (RS)-6-((5-methyl-3-(6-methylpyridin-3-yl)isoxazol-4-yl)methoxy)-N-(oxepan-4-yl)pyridazine-3-carboxamide] it is 14.8 nM.
Same read-out and setting: the figure for `Cc1ccc(-c2noc(C)c2COc2ccc(C(=O)NC(C)(C)CCS(C)(=O)=O)nn2)cn1` [Example 80, 6-((5-methyl-3-(6-methylpyridin-3-yl)isoxazol-4-yl)methoxy)-N-(2-methyl-4-(methylsulfonyl)butan-2-yl)pyridazine-3-carboxamide] is 13.2 nM.
For `Cc1onc(-c2cccnc2)c1COc1ccc(C(=O)NC2CCOCC2)cn1` [RO-159, reference compound], in test [2], the “Efficacy (GABA) %” value is on record as −12% and the “Fold increase h-GABA-A α5β3γ2 oocyte” value was found to be 0.88.
In the same order, the values of `Cc1ccc(-c2noc(C)c2COc2ccc(C(=O)NC3CCOCC3)cn2)cc1` [RO-251, reference compound] are −18% and 0.82.
Consider `Cc1onc(-c2ccccn2)c1COc1ccc(C(=O)NC2CCOCC2)cn1` [RO-272, reference compound], for which, in test [2], the “Efficacy (GABA) %” value is recorded as −32% and the “Fold increase h-GABA-A α5β3γ2 oocyte” value stood at 0.68.
In the same order, the values of `Cc1onc(-c2ccc(Cl)cn2)c1COc1ccc(C(=O)NC2CCOCC2)cn1` [RO-301, reference compound] are −18% and 0.82.
Consider `COC(=O)c1cc2c(cn1)[nH]c1ccccc12` [β-CCM, reference compound], for which the “inhibition of the GABA-evoked current” value in test [2] (positive control (NAM) at a maximally effective concentration) is recorded as ~50%. Further, in test [2] (positive control at a maximally effective concentration, 3-6 oocytes per 96-well plate), the Fold increase is given as ~0.5.

A word on the Ki: it is the dissociation constant of the complex between target and ligand, obtained from inhibition or displacement. A higher Ki goes with weaker binding.
